{"source": "patent US11891386B2", "about": "“Indole compounds and their use” (ARIAGEN, INC., priority 2017, dated 2024)", "key": {"[1]": {"test_system": "CYP1A1 in human HepG2 cells", "assay": "EROD assay (7-ethoxy-resorufin-O-deethylase), human HepG2 cells", "assay_type": "cell-based", "design": "key to activity group based on EC50 values, in the order of increasing activity: (1) active; (2) more active; (3) most active", "details": "for activity group based on EC50 values, in the order of increasing activity: oxadiazole derivatives of ITE", "experimental": "(§1) CYP1A1 induction is under the control of the AhR signaling pathway. This Example describes an in vitro assay (7-ethoxy-resorufin-O-deethylase (EROD) assay) that evaluated the AhR modulating activities of the indole compounds described herein. In this assay, the indole compounds were incubated with human HepG2 cells or mouse Hepal-6 cells. The activity of CYP1A1 in the cells was measured by the conversion of substrate 7-ethoxyresorufin, with the readout being a fluorescence signal associated with the conversion product. The EC50 values of the indole compounds as well as the maximum […] induced by them in the assay were determined.\n(§2) Human HepG2 cells were obtained from Sigma Aldrich (Catalog 85011430-1VL). Mouse Hepal-6 cells also were obtained from Sigma Aldrich (Catalog 92110305-1V).\n(§3) Human HepG2 and Mouse Hepal-6 cells were grown to 60-80% confluency in tissue culture flasks, lifted with non-enzymatic cell dissociation solution (cell stripper), seeded in a 384-well plate at 5,000 cells per well, treated with the test compounds, and incubated for 20 hours overnight at 37° C. The treatment medium was removed and a solution of substrate 7-ethoxyresorufin (ETX) was added to initiate the reaction. The plate was incubated at 37° C. for 30 minutes. The reaction was subsequently terminated by adding tempered methanol. Fluorescent emission was measured at 590 nm with excitation at 530 nm in a FLEXSTATION III instrument (Molecular Devices)."}, "[2]": {"assay": "In vivo pharmacokinetic study in Sprague-Dawley rats", "details": "rat; for bioavailability: Sprague-Dawley, plasma, po, 10 mg/kg; for % of Hepatisc Blood Flow: IV (2 mg/kg)", "experimental": "This example describes pharmacokinetic (PK) studies of the various indole compounds described herein in rats, a rodent species widely used for pre-clinical toxicology evaluation. In the present studies, the test compounds were given to groups of Sprague-Dawley rats (N=3 in each group) intravenously (IV) at 2 mg/kg or orally (PO) at 10 mg/kg. IV doses were formulated in DMSO, while PO doses were formulated in a 50/50 mixture of PEG400 and Tween 80. Blood samples were collected at pre-dose and over a period of 24 hours post-dose. Plasma concentrations of the indole compounds were determined by HPLC."}, "[3]": {"test_system": "EMT-6 syngeneic mouse tumor model (breast cancer)", "assay": "Anti-tumor activity, EMT-6 syngeneic mouse tumor model", "assay_type": "in vivo", "details": "for inhibition in vivo at 40 mg/kg: Mus musculus, EMT6, ip, read-out: TGI (tumor growth inhibition)", "experimental": "(§4) This example describes in vivo studies that evaluated the anti-cancer efficacy of the disclosed indole compounds in syngeneic mouse tumor models. Mice implanted subcutaneously with four types of cancer cells were treated with test indole compounds or vehicle controls as described below.\n(§5) A monolayer culture of tumor cells was maintained in vitro in DMEM or RPMI1640 medium supplemented with 10% fetal bovine serum at 37° C. in an atmosphere of 5% CO2. Cells in exponential growth phase were harvested and quantitated by cell counter before tumor inoculation. The cell lines used are described in the table below.\n(§6) Four subcutaneous syngeneic mouse tumor models were generated by innoculating female BALB/C or C57BL/6 mice with cancer cells at their right lower or front flank as detailed in the table below:\n(§7) Each mouse was inoculated subcutaneously with tumor cells in 0.1 mL of PBS. Treatments were started when the mean tumor size reached approximately 80-120 mm^3 (around 100 mm^3). The administration of the indole compounds and the animal number in each study group are shown in the study design. The date of tumor cell inoculation was denoted as day 0.\n(§8) The indole compounds were dissolved in DMSO at the final concentration of 26.7 mg/ml and stored at room temperature.\n(§9) Randomization of animals was started when the mean tumor size reached approximately 90 mm^3 to form the mouse study groups. The randomization was performed based on “Matched distribution” method using the multi-task method (StudyDirector™ software, version 3.1.399.19)/randomized block design. The mouse groups (ten in each group) were treated with vehicle (DMSO) or the indole compounds at a dose of 40 mg/kg by i.p. injection, QD for 28 days or longer.\n(§10) After tumor cell inoculation, the mice were checked daily for morbidity and mortality. During routine monitoring, the mice were checked for tumor growth and any effects of the treatment on behavior such as mobility, food and water consumption, body weight gain/loss (body weights were measured twice per week after randomization), eye/hair matting, and any other abnormalities. Mortality and observed clinical signs were recorded for individual mice in detail.\n(§11) Tumor volumes were measured twice per week in two dimensions using a caliper, and the volume was expressed in mm^3 using the formula: V=(L×W×W)/2, where V is tumor volume, L is tumor length (the longest tumor dimension) and W is tumor width (the longest tumor dimension perpendicular to L). Dosing as well as tumor and body weight measurements was conducted in a Laminar Flow Cabinet. The body weights and tumor volumes were measured by using StudyDirector™ software (version 3.1.399.19). Dosing Holiday\nTumor growth inhibition percentage (TGI %) is an indicator for antitumor activity of a drug compound, and expressed as: TGI (%)=100×(1−T/C), where T and C are the mean tumor volume (or weight) of the treated and control groups, respectively, on a given day. Statistical analysis of the difference in mean tumor volume (MTV) among the groups was conducted using the data collected on the day when the MTV of the vehicle group reached the humane endpoints, so that TGI could be derived for all or most mice enrolled in the study.\nIn Studies 1 and 3, the anti-tumor activity of ARI-001 in parallel with ARI-002 at 160 mg/kg (mpk), and the anti-tumor activity of ARI-087 in parallel with ARI-002 at 40 mpk were assessed using the EMT-6, Pan02, A20, and LL/2 models. Because EMT-6 provides a fast-growing model that enables relatively quick differentiation of performance between compounds, this syngeneic mouse tumor model was chosen for the other studies. In Study 2, the anti-tumor activity of ARI-002 was compared with that of ARI-004 at 10, 40, and 80 mpk. In Study 4, the anti-tumor activity of ARI-087 was compared with that of ARI-140. In Study 5, the anti-tumor activity of ARI-087 was evaluated in parallel with ARI-143 and ARI-149 at 40 mpk. […]"}, "[4]": {"test_system": "Pan02 syngeneic mouse tumor model (pancreatic cancer)", "assay": "Anti-tumor activity, Pan02 syngeneic mouse tumor model", "assay_type": "in vivo", "details": "Study 3, Pan02, 40 mpk i.p. QD, D60", "experimental": "as §4, §5, §6, §7, §8\nRandomization of animals was started when the mean tumor size reached approximately 90 mm^3 to form the mouse study groups. […]\nas §10\nas §11, with “Dosing as well as tumor and body weight measurements was conducted in a Laminar Flow Cabinet.” left out, “Dosing Holiday” left out\n(§12) Tumor growth inhibition percentage (TGI %) is an indicator for antitumor activity of a drug compound, and expressed as: TGI (%)=100×(1−T/C), where T and C are the mean tumor volume (or weight) of the treated and control groups, respectively, on a given day. […]\nIn Studies 1 and 3, the anti-tumor activity of ARI-001 in parallel with ARI-002 at 160 mg/kg (mpk), and the anti-tumor activity of ARI-087 in parallel with ARI-002 at 40 mpk were assessed using the EMT-6, Pan02, A20, and LL/2 models. […]"}, "[5]": {"test_system": "A20 syngeneic mouse tumor model (B cell lymphoma)", "assay": "Anti-tumor activity, A20 syngeneic mouse tumor model", "assay_type": "in vivo", "details": "Study 3, A20, 40 mpk i.p. QD, D28", "experimental": "as §4, §5, §6, §7, §8, §9, §10, §11, §12\n(§13) In Studies 1 and 3, the anti-tumor activity of ARI-001 in parallel with ARI-002 at 160 mg/kg (mpk), and the anti-tumor activity of ARI-087 in parallel with ARI-002 at 40 mpk were assessed using the EMT-6, Pan02, A20, and LL/2 models. […] In Study 5, the anti-tumor activity of ARI-087 was evaluated in parallel with ARI-143 and ARI-149 at 40 mpk. […]"}, "[6]": {"test_system": "LL/2 syngeneic mouse tumor model (lung cancer)", "assay": "Anti-tumor activity, LL/2 syngeneic mouse tumor model", "assay_type": "in vivo", "details": "Study 3, LL/2, 40 mpk i.p. QD, D28", "experimental": "as §4, §5, §6, §7, §8, §9, §10, §11, §12, §13"}, "[7]": {"test_system": "CYP1A1 in mouse Hepal-6 cells", "assay": "EROD assay (7-ethoxy-resorufin-O-deethylase), mouse Hepa1-6 cells", "assay_type": "cell-based", "experimental": "as §1, §2, §3"}, "[8]": {"details": "PO (10 mg/kg) vs IV (2 mg/kg), read-out: F % (bioavailability)"}}, "note": "Like-named read-outs stand apart in the source and are kept apart here."}
{"smiles": "Cc1nc(-c2csc(C(=O)c3c[nH]c4ccccc34)n2)no1", "note": "[ARI-030, (1H-indol-3-yl)(4-(5-methyl-1,2,4-oxadiazol-3-yl)thiazol-2-yl)methanone]", "values": [{"measurement": "activity group based on EC50 values, in the order of increasing activity", "setting": "[1]; human EROD assay", "value": "active"}, {"measurement": "activity in the human EROD assay compared to ARI-001 / ARI-002, in words", "setting": "[1]; human HepG2 cells", "value": "significantly more (about 4 to 900 times more) active than ARI-001"}, {"measurement": "bioavailability", "setting": "[2]; [8]", "value": 0.9, "unit": "%"}, {"measurement": "IV PK profile compared to ARI-001, ARI-002, and ARI-004, in words", "setting": "[2]; IV", "value": "improved IV PK profiles"}, {"measurement": "% of Hepatisc Blood Flow", "setting": "[2]", "value": 28, "unit": "%"}, {"measurement": "inhibition in vivo at 40 mg/kg", "setting": "[3]; 648 h, Study 3, EMT-6, 40 mpk i.p. QD, D27", "value": 21.9, "unit": "%"}, {"measurement": "TGI (tumor growth inhibition)", "setting": "[4]", "value": 23.5, "unit": "% D60"}, {"measurement": "TGI (tumor growth inhibition)", "setting": "[5]", "value": "−0.8", "unit": "% D28"}, {"measurement": "TGI (tumor growth inhibition)", "setting": "[6]", "value": 8.4, "unit": "% D28"}]}
{"smiles": "CCC(=O)c1csc(C(=O)c2c[nH]c3cc(F)c(F)cc23)n1", "note": "[ARI-149, 1-(2-(5,6-difluoro-1H-indole-3-carbonyl)thiazol-4-yl)propan-1-one]", "values": [{"measurement": "EC50", "setting": "[1]; EROD assay, human HepG2 cells, 20 hours treatment", "value": 19.2, "unit": "nM"}, {"measurement": "EC50", "setting": "[7]; EROD assay, 20 hours treatment", "value": 0.6, "unit": "nM"}, {"measurement": "bioavailability", "setting": "[2]; [8]", "value": 6.8, "unit": "%"}, {"measurement": "bioavailability", "setting": "[2]; PO, read-out: absolute oral bioavailability, % of ARI-002", "value": 62, "unit": "%"}, {"measurement": "IV AUCinf, times higher than ARI-002", "setting": "[2]; IV", "value": 2.3, "unit": "times"}, {"measurement": "plasma clearance, % of that of ARI-002", "setting": "[2]; IV", "value": 50, "unit": "%"}, {"measurement": "% of Hepatisc Blood Flow", "setting": "[2]", "value": 13, "unit": "%"}, {"measurement": "PO AUCinf, times higher than that of ARI-002", "setting": "[2]; PO", "value": "about 1.4 times"}, {"measurement": "inhibition in vivo at 40 mg/kg", "setting": "[3]; 720 h, Study 5, EMT-6, 40 mpk i.p. QD, D30", "value": 42.7, "unit": "%"}]}
{"smiles": "Nc1nnc(-c2csc(C(=O)c3c[nH]c4c(F)cccc34)n2)o1", "note": "[ARI-118, (4-(5-amino-1,3,4-oxadiazol-2-yl)thiazol-2-yl)(7-fluoro-1H-indol-3-yl)methanone]", "values": [{"measurement": "times more active than ARI-001", "setting": "[1]; human EROD assay", "value": "about 930 times"}, {"measurement": "times more active than ARI-002", "setting": "[1]; human EROD assay", "value": "about 13 times"}, {"measurement": "activity group based on EC50 values, in the order of increasing activity", "setting": "[1]; human EROD assay", "value": "most active"}, {"measurement": "activity in the human EROD assay compared to ARI-001 / ARI-002, in words", "setting": "[1]; human HepG2 cells", "value": "significantly more (about 4 to 900 times more) active than ARI-001"}, {"measurement": "activity in the mouse EROD assay, in words", "setting": "[7]", "value": "most active among the tested oxadiazole compounds"}, {"measurement": "bioavailability", "setting": "[2]; [8]", "value": 0.2, "unit": "%"}, {"measurement": "IV PK profile compared to ARI-001, ARI-002, and ARI-004, in words", "setting": "[2]; IV", "value": "improved IV PK profiles"}, {"measurement": "% of Hepatisc Blood Flow", "setting": "[2]", "value": 17, "unit": "%"}, {"measurement": "anti-tumor potency, in words", "setting": "[3]; EMT-6 model, 40 mpk", "value": "superior anti-tumor activity than ARI-087"}, {"measurement": "tumor growth and survival, in words", "setting": "[3]; EMT-6 model, 40 mpk", "value": "delay tumor growth and prolong survival"}, {"measurement": "complete tumor regression (CR)", "setting": "[3]; EMT-6 model, Study 4, by day 46", "value": "1 out of 10"}, {"measurement": "inhibition in vivo at 40 mg/kg", "setting": "[3]; 672 h, Study 4, EMT-6, 40 mpk i.p. QD, D28", "value": 54.5, "unit": "%"}]}
